Data set [1] relates to CD8+ T cells and CD4+/FoxP3+ Treg cells. Put plainly: Proliferation of CD8+ T cells and Treg cells in PBMCs (Exp. Ex. 10). It counts as cell-based, human. How it is done:
Human PBMCs were purchased from Allcells (Lot #3014928, USA). […] CellTrace CFSE dye was used, which was reacted with the human PBMCs under a light-blocking condition at […] for 20 minutes. The cells were labeled with CFSE by being reacted with 1 μM CellTrace CFSE dye at 37° C. for 20 minutes. CFSE not bound to the cells was removed by being reacted for 5 minutes with a culture medium having a 5-fold volume of the staining reaction solution and then by being centrifuged at 1,300 rpm for 5 minutes. The CFSE-labeled PBMCs were resuspended in the culture medium (RPMI1640 medium containing 10% fetal bovine serum, 10 mM HEPES, 100 U/ml penicillin/streptomycin, 1 mM sodium pyruvate, 55 μM 2-mercaptoethanol, 1 mM non-essential amino acid, and 2 mM L-glutamine), and then added to a 96-well microplate at 1×10^5 cells per well.
The incubated cells were examined for their degree of proliferation by measuring, with FACS analysis using anti-human CD4-PE antibody (BioLegend, USA), anti-human CD8-PE/Cy7 antibody (BioLegend, USA), and anti-human FoxP3-APC antibody (BioLegend, USA), a proportion of CD8+ T cells that had not been labeled with CFSE.

Data set [2] has as its target T1, CTLA-4 expressed on effector T cells (Homo sapiens, UniProt P16410).
T1 construct: host or cells: CTLA-4 effector cells of the kit, co-cultured with aAPC/Raji cells
Put plainly: CTLA-4 blockade bioassay. It is filed as cell-based. Particulars: CTLA-4 effector cells + aAPC/Raji cells, 16 hours. How it is done:
An experiment was performed using a CTLA-4 blockade bioassay kit (Promega cat No. JA4005). The experiment is briefly described as follows. CTLA-4 effector cells kept in liquid nitrogen were thawed in a 37° C. constant temperature water bath for 3 minutes, and 0.8 ml of CTLA-4 effector cells were mixed well with 3.2 ml of pre-warmed assay buffer (90% RPMI+10% fetal bovine serum). Then, the mixture was added to a 96-well white cell culture plate (SPL, cat No. 30196) at 25 μl per well. Then, 25 μl of GI101 at various concentrations was added thereto. For a negative control, 25 μl of assay buffer was added thereto. Then, the 96-well white cell culture plate was covered and placed at room temperature until aAPC/Raji cells were prepared.
aAPC/Raji cells kept in liquid nitrogen were thawed in a 37° C. constant temperature water bath for 3 minutes, and 0.8 ml of aAPC/Raji cells were mixed well with 3.2 ml of pre-warmed assay buffer. Then, 25 μl of the mixture was added to the plate at per well, and reaction was allowed to proceed in a 5% CO2 incubator at 37° C. for 16 hours. […] Reaction was allowed to proceed at room temperature for 10 minutes, and then luminescence was measured with Cytation 3 (BioTek instruments, Winooski, VT, USA). […]

For data set [3], the system named is immune cells in cancer tissues. In words: Immune cell analysis in CT-26 cancer tissue (FACS). It is filed as in vivo, BALB/c mice. The text has this: The mice of each group in Experimental Example 16.1 were sacrificed when the tumor volume reached an average of 200 mm^3, and cancer tissues were collected.
The next data set concerns MC38. In words: mGI101 and anti-PD-1 antibody in MC38 allotransplanted tumor model. It counts as in vivo, C57BL/6 mice. How it is done:
Rodent-derived colorectal cancer cells, MC38, were purchased from Kerafast (USA) and used for the test. MC38 cells were cultured in RPMI1640 medium (Gibco) containing 10% fetal bovine serum (Gibco) and 1% antibiotic/antifungal agent (Gibco). The cultured cells were harvested using trypsin and then suspended in PBS. In order to establish an allotransplanted tumor model, 1×10^6 MC38 cells were subcutaneously injected into the right flank of C57BL/6 female mice (7-week-old).
The mice were randomly assigned based on tumor volume (30 mm^3), each group including 5 mice. The tumor grafts were identified about day 2 after cell inoculation.
Clinical symptoms such as a disease and a behavioral change were observed once a day during the test period, and deceased animals were identified. At the end of the test period, the animals were sacrificed. The size of the MC38 solid cancer was measured using a tumor 3D scanner (TM900, Peria, Belgium). […] The anti-tumor efficacy was evaluated as compared with the vehicle control. All statistical calculations were performed using Prism 8.0 (Graph Pad Software Inc, USA). The comparison of tumor volume measurements was made through one-way analysis of variance (at the end of this test) followed by Bonferroni's multiple comparison test. A p value of less than 0.05 was considered significant.

Data set [4] relates to CT26 (mouse colon carcinoma) cells. In words: mGI-101 and Galunisertib in CT26 allotransplanted tumor model. It is filed as in vivo, BALB/cAnHsd mice. Conditions: mean ± SD, mGI-101 3 mg/kg IP, Galunisertib 75 mg/kg PO. How it is done:
6-week-old male BALB/cAnHsd mice were purchased and used for the test.
The tumor size was measured three times a week for 3 weeks from the day of start of administration of the test substance. The major axis and minor axis of the tumor were measured using a caliper, and the tumor size (tumor volume, TV) was calculated using the following equations. TV (mm^3)=(W^2×L)/2 [Equation 1]

In another data set the test system is MC38 cells. In words: mGI-101 and DMXAA in MC38 allotransplanted tumor model. Particulars: day 60 after tumor injection; mGI-101 6 mg/kg i.p. BIW, DMXAA 450 μg I.T.; 5 mice per group. It counts as in vivo, C57BL/6 mice. How it is done: In order to establish an allotransplanted tumor model, 5×10^5 of MC38 cells were subcutaneously injected into C57BL/6 mice. The tumor grafts of the mice were identified to be a size of 100-200 mm^3 about day 10 after cell inoculation, and the mice were assigned, each group including 5 mice.
The size of the MC38 solid cancer was measured three times a week during the observation period, and the major axis (maximum length, L) and minor axis (perpendicular width, W) of the tumor were measured using a caliper, and the tumor volume (TV) was calculated by substituting them into the following equation, and once the tumor size was no less than 2 cm, the mice were sacrificed. TV (mm^3)=(W^2×L)/2 [Equation 1]

Marks after values point to notes of the source that are not given here.

T1 sequence (P16410 36-223): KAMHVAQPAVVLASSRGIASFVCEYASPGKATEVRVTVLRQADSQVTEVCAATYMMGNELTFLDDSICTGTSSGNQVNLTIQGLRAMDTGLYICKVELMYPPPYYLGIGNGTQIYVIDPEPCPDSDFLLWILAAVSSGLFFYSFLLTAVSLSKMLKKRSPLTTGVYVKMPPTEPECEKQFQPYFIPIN

Turning to “GI101: fusion protein: human CD80 fragment, Ig hinge, Fc domain, linker, IL-2 variant (2M) (R38A, F42A); SEQ ID NO: 9”, in data set [1] (anti-CD3ε 1 μg/ml, 7 days, compared with no stimulus, anti-CD3 antibody alone and GI101C1), the “proportion of CD8+ T cells” value is reported as “significant increase”. The “proliferation of CD4+/FoxP3+ Treg cells” value in data set [1] (compared with no stimulus and anti-CD3 antibody alone) is “significant increase”. Also, the “function of T cells (luminescence)” value in data set [2] is given as “activats the function of T cells rather than inhibiting the same”. For the same substance, the “CD8+ T cells in cancer tissue” value in data set [3] (0.1 mg/kg, compared with anti-PD-1 antibody alone 5 mg/kg) is “significant increase”. In addition, the M1 macrophages result in data set [3] (0.1 mg/kg, vs negative control and anti-PD-1 antibody alone) is reported as “increase”. The “level of CD86 expression in macrophages and dendritic cells” value in data set [3] (all GI101 groups) is given as “increased level”. In addition, the “level of expression of IFN-γ in T cells” value in data set [3] (all GI101 groups, vs negative control) was “significantly increased level”.
In the case of “mGI101: fusion protein: mouse CD80, Ig hinge, Fc domain, linker, IL-2 variant (2M) (R38A, F42A); SEQ ID NO: 15”, in the data set on MC38 (16 days, mGI101 6 mpk alone, anti-PD-1 5 mpk, combination mGI101 0.6 mpk + anti-PD-1 5 mpk, vs control), the “anticancer effect / anti-tumor efficacy” value was “anticancer effect was also shown”. Moreover, in the data set with MC38 (mGI101 6 mpk alone (compared with anti-PD-1 group), anti-PD-1 5 mpk, combination 0.6 mpk + 5 mpk), the individual tumor sizes result was “more excellent tumor growth inhibitory effect”. Besides, the “health state of test animals after administration” value with MC38 (mGI101 alone and in combination with anti-PD-1 antibody, i.p.) was “healthy state without signs of pathological abnormalities”. For the same substance, the Tumor size in data set [4] (Day 0) is reported as 61.96 ± 11.81 mm^3; in data set [4] (Day 2), 177.83 ± 78.22 mm^3; in data set [4] (Day 4) it was 224.56 ± 105.31** mm^3; in data set [4] (Day 7), 291.81 ± 155.23 (9)* mm^3. For the same substance, the values for the Tumor growth inhibition in data set [4] (Day 2), in data set [4] (Day 4) and in data set [4] (Day 7) were 21.91 ± 53.41%, 46.07 ± 35.1 % and 46.48 ± 36.39 (9) %, respectively. The same substance gave a survival rate in the data set on MC38 cells of 20%.

Source of the values: US11857601B2, “Pharmaceutical composition for cancer treatment comprising fusion protein including IL-2 protein and CD80 protein and anticancer drug” (GI INNOVATION, INC., priority 2020, dated 2024).
